{
  "source": "patent US20250024872A1",
  "about": "“SALTY TASTE ENHANCER” (AJINOMOTO CO., INC., priority 2022, published 2025)",
  "assay": "sensory evaluation of saltiness intensity by expert panel, 1.0% sodium chloride solution",
  "format": "in vivo",
  "experimental": "Evaluation samples 1 to 10 were prepared by adding a cyclotene diluted solution (using propylene glycol as a solvent) to 1.0% sodium chloride solution to adjust the concentration of cyclotene in the sodium chloride solution as shown in the following Table 1. The amount of propylene glycol added was adjusted to be the same in all evaluation samples.\nA panel of four experts conducted a sensory evaluation of the saltiness intensity of evaluation samples 1 to 10. The sensory evaluation was performed by the four experts, who scored each evaluation sample in 0.1 point increments based on the following evaluation scale using 1.0% sodium chloride solution, 1.025% sodium chloride solution and 1.05% sodium chloride solution as reference samples, and calculated the average score of the four experts. The four experts were previously trained to have a common understanding of the following saltiness intensity evaluation scale, such as the amount of saltiness intensity change required to cause a score change of 0.1 point.\n• 0.0 points: saltiness intensity equivalent to 1.0% sodium chloride solution • 5.0 points: saltiness intensity equivalent to 1.025% sodium chloride solution • 10.0 points: saltiness intensity equivalent to 1.05% sodium chloride solution",
  "data": [
    {"smiles": "CC1=C(O)C(=O)CC1", "note": "[cyclotene]", "values": [
      {"measurement": "saltiness enhancement (in words)", "value": "has a saltiness enhancing action"}
    ]}
  ]
}
